Among the data in patent US8188077B2, “Apoptosis-inducing agents for the treatment of cancer and immune and autoimmune diseases” (Abbott Laboratories, priority 2010, dated 2012) are Ki values, retold here.

The target in the assay is T1, Bcl-2 protein (Homo sapiens, UniProt P10415, DELINS35-91DVEENRTEAPEGTESE, form not given).
T1 construct: fused on or other part: Bcl-xL (Q07817) residues 29-44 stand in place of Bcl-2's own unstructured loop 35-91; The C-terminal membrane anchor (208-239) is absent
T1 sequence (P10415 with tags, fused parts or gaps with the stated changes): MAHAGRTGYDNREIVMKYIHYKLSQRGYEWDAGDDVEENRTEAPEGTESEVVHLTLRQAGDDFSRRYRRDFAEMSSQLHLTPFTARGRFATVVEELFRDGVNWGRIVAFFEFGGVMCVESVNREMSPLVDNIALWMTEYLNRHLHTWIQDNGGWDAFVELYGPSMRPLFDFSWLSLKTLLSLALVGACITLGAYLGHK
The assay can be described thus: Bcl-2 fluorescence polarization assay (FPA) binding. The settings on record: 10 nM Bcl-2 protein, 1 nM fluorescein-labeled BAX peptide, room temperature, read-out: Bcl-2 FPA 11pt Ki. Summed up: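 Competitive fluorescence polarization with 10 nM Bcl-2 protein and 1 nM fluorescein-labeled BAX peptide in 20 mM phosphate pH 7.4, 1 mM EDTA, 0.05% PF-68. Compound dilutions in DMSO spanned […] to 10 pM; mix shaken 2 min, polarization read at room temperature (ex 485/em 530 nm); Ki values calculated.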
In general terms: Polarisation of emitted light reports the rotation of a fluorescent probe.

A value given as a limit tells only on which side of the number the result lay.

As a reminder, the Ki is a dissociation constant, usually derived from enzyme kinetics or from competition with a known ligand. Consider `C[C@@H]1[C@@H](Nc2cccc(C=C3CCN(c4ccc(C(=O)NS(=O)(=O)c5ccc(NCC6CCOCC6)c([N+](=O)[O-])c5)cc4)CC3)c2)C[C@H]2C[C@@H]1C2(C)C` [Example 73, N-({3-nitro-4-[(tetrahydro-2H-pyran-4-ylmethyl)amino]phenyl}sulfonyl)-4-[4-(3-{[(1S,2S,3S,5R)-2,6,6-trimethylbicyclo[3.1.1]hept-3-yl]amino}benzylidene)piperidin-1-yl]benzamide], for which the Ki was found to be 0.0932 µM. The same measure for `O=C(NS(=O)(=O)c1ccc(NCC2CCOCC2)c([N+](=O)[O-])c1)c1ccc(N2CCC(=Cc3ccccc3-c3ccc(-c4nc(C56CC7CC(CC(C7)C5)C6)cs4)s3)CC2)cc1` [Example 74, 4-[4-(2-{5-[4-(adamantan-1-yl)-1,3-thiazol-2-yl]-2-thienyl}benzylidene)piperidin-1-yl]-N-({3-nitro-4-[(tetrahydro-2H-pyran-4-ylmethyl)amino]phenyl}sulfonyl)benzamide]: 0.102 µM; for `O=C(NS(=O)(=O)c1ccc(NCC2CCOCC2)c([N+](=O)[O-])c1)c1ccc(N2CCC(=Cc3ccccc3-c3ccc(-c4nc(-c5ccccc5)cs4)s3)CC2)cc1` [Example 75, N-({3-nitro-4-[(tetrahydro-2H-pyran-4-ylmethyl)amino]phenyl}sulfonyl)-4-(4-{2-[5-(4-phenyl-1,3-thiazol-2-yl)-2-thienyl]benzylidene}piperidin-1-yl)benzamide]: 0.251 µM; for `CC1(C)[C@@H]2CC[C@@]1(C)CN(c1ccc(C(=O)NS(=O)(=O)c3ccc(NC4CCOCC4)c([N+](=O)[O-])c3)cc1)C2` [Example 79, N-{[3-nitro-4-(tetrahydro-2H-pyran-4-ylamino)phenyl]sulfonyl}-4-[(1R,5S)-1,8,8-trimethyl-3-azabicyclo[3.2.1]oct-3-yl]benzamide]: 1.42 µM.

With `COc1ccc(-c2ccc3cc(C(=O)NS(=O)(=O)c4ccc(NCC5CCCCC5)c([N+](=O)[O-])c4)ccc3c2)cc1C12CC3CC(CC(C3)C1)C2` [Example 80, 6-{3-[adamantan-1-yl]-4-methoxyphenyl}-N-({4-[(cyclohexylmethyl)amino]-3-nitrophenyl}sulfonyl)-2-naphthamide], the Ki was 1.3 µM. In the case of `O=C(NS(=O)(=O)c1ccc(NC2CCOCC2)c([N+](=O)[O-])c1)c1ccc(N2CCN(C(=O)CC34CC5CC(CC(C5)C3)C4)CC2)cc1` [Example 81, 4-{4-[adamantan-1-ylacetyl]piperazin-1-yl}-N-{[3-nitro-4-(tetrahydro-2H-pyran-4-ylamino)phenyl]sulfonyl}benzamide], the inhibition constant (Ki) worked out at 4.73 µM.

For `O=C(NS(=O)(=O)c1ccc(NC2CCOCC2)c([N+](=O)[O-])c1)c1ccc(NCC23CC4CC(CC(C4)C2)C3)cc1` [Example 82, 4-{[adamantan-1-ylmethyl]amino}-N-{[3-nitro-4-(tetrahydro-2H-pyran-4-ylamino)phenyl]sulfonyl}benzamide], the Ki worked out at 2.18 µM.

Regarding `O=C(NS(=O)(=O)c1ccc(NC2CCOCC2)c([N+](=O)[O-])c1)c1ccc(N2CCC(NC(=O)C34CC5CC(CC(C5)C3)C4)CC2)cc1` [Example 83, N-{1-[4-({[3-nitro-4-(tetrahydro-2H-pyran-4-ylamino)phenyl]sulfonyl}carbamoyl)phenyl]piperidin-4-yl}adamantane-1-carboxamide], the Ki is above 6.25 µM. As to `O=C(NS(=O)(=O)c1ccc(NC2CCOCC2)c([N+](=O)[O-])c1)c1ccc(NC2C3CC4CC(C3)CC2C4)cc1` (centres unmarked) [Example 84, 4-[adamantan-2-ylamino]-N-{[3-nitro-4-(tetrahydro-2H-pyran-4-ylamino)phenyl]sulfonyl}benzamide], the Ki was 2.38 µM.

With `C[C@@H]1[C@H]2C[C@@H](C[C@H]1Oc1ccc(C(=O)NS(=O)(=O)c3ccc(NC4CCOCC4)c([N+](=O)[O-])c3)cc1)C2(C)C` [Example 85, N-{[3-nitro-4-(tetrahydro-2H-pyran-4-ylamino)phenyl]sulfonyl}-4-{[(1R,2R,3R,5S)-2,6,6-trimethylbicyclo[3.1.1]hept-3-yl]oxy}benzamide], the Ki is 2.88 µM. For the compound “N-(adamantan-2-yl)-6-methyl-8-{2-[(4-{4-[({3-nitro-4-[(tetrahydro-2H-pyran-4-ylmethyl)amino]phenyl}sulfonyl)carbamoyl]phenyl}piperazin-1-yl)methyl]phenyl}imidazo[1,2-a]pyridine-2-carboxamide [Example 26]”, the Ki stood at 1.17 µM.
